# Values of other authors, collected in US20100112724A1, “METHOD OF DETERMINATION OF PROTEIN LIGAND BINDING AND OF THE MOST PROBABLE LIGAND POSE IN PROTEIN BINDING SITE” (priority 2007, published 2010).
# Tested on: protein of the protein-ligand complex (pdb code)
# Conditions: experimentally known binding affinity of test and training protein-ligand complexes selected from PDB, structures described in publications [7, 8, 9]
row,"ΔG, kcal/mol (free energy of ligand-protein binding) [kcal/mol]",SMILES
1,-7.8,O=C(O)[C@H](O)[C@@H](O)[C@H](O)[C@H](O)COP(=O)(O)O [1PGP]
2,-8.4,Cc1ccc(S(=O)(=O)N[C@@H](Cc2cccc(C(=N)N)c2)C(=O)N2CCCCC2)cc1 [1PPH]
3,-9.2,CC1=C(/C=C/C(C)=C/C=C/C(C)=C/CO)C(C)(C)CCC1 [1RBP]
4,-7.1,Nc1nc2c(ncn2[C@@H]2O[C@H](CO)[C@@H](O)[C@H]2OP(=O)(O)O)c(=O)[nH]1 [1RNT]
5,-4,NCC1CCCCC1 [1TNG]
6,-2.3,NCCCCc1ccccc1 [1TNI]
7,-2,NCCCc1ccccc1 [1TNK]
8,-5.3,O=C(O)[C@@H](O)Cc1ccccc1 [2CTC]
9,-11.9,CC(=O)[C@H]1CC[C@H]2[C@@H]3CC[C@H]4C[C@@H](OC(=O)CCC(=O)O)CC[C@]4(C)[C@H]3CC[C@]12C [2DBL]
10,-8.9,OC[C@H]1O[C@@H](O)[C@H](O)[C@@H]1O [2DRI]
11,-10.2,OC[C@H]1O[C@@H](O)[C@H](O)[C@@H](O)[C@@H]1O [2GBP]
12,-6.6,O=C(O)COP(=O)(O)O [2YPI]
13,-6.3,N=C(N)c1ccccc1 [3PTB]
14,-8.9,OC[C@H]1O[C@H](O)[C@H](O)[C@@H](O)[C@H]1O [5ABP]
15,-4.4,O=P(O)(O)OC[C@@H](O)CO [6TIM]
16,-8.7,C[C@H]1O[C@H](O)[C@H](O)[C@@H](O)[C@H]1O [7ABP]
17,-7.4,O=C(COP(=O)(O)O)NO [7TIM]
18,-10.7,OC[C@H]1O[C@H](O)[C@H](O)[C@@H](O)[C@H]1O [8ABP]
19,-10.3,O=C(O)C[C@H](NC(=O)CP(=O)(O)O)C(=O)O [8ATC]
20,-10.7,OC[C@H]1O[C@@H](O)[C@H](O)[C@@H](O)[C@H]1O [9ABP]

# The remaining lines, values behind:
row,SMILES,"ΔG, kcal/mol (free energy of ligand-protein binding) [kcal/mol]"
1,O[C@@H]1[C@@H](O)[C@@H](O)CO[C@H]1O [1ABE],-9.2
2,C[C@H]1O[C@H](O)[C@H](O)[C@@H](O)[C@H]1O [1ABF],-7.3
3,Nc1ccnc2c1ncn2[C@@H]1O[C@H](CO)[C@@H](O)[C@H]1O [1ADD],-9.2
4,OC[C@H]1O[C@H](O[C@H]2[C@H](O)[C@@H](O)[C@H](O)O[C@@H]2CO)[C@H](O)[C@@H](O)[C@@H]1O [1ANF],-7.3
5,C[C@H]1O[C@@H](O)[C@H](O)[C@@H](O)[C@H]1O [1APB],-7.8
6,O[C@@H]1[C@@H](O)[C@@H](O)OC[C@@H]1O [1BAP],-9.3
7,CN[C@H]1CN(c2cccc(OC)c2)S(=O)(=O)c2sc(S(N)(=O)=O)cc21 [1BNM],-14.2
8,COc1cccc(N2CCc3cc(S(N)(=O)=O)sc3S2(=O)=O)c1 [1BNN],-14.2
9,CCN[C@H]1CN(CCOC)S(=O)(=O)c2sc(S(N)(=O)=O)cc21 [1BNQ],-13.5
10,COc1ccc(N2C[C@H](O)c3cc(S(N)(=O)=O)sc3S2(=O)=O)cc1 [1BNT],-13.9
11,NS(=O)(=O)c1cc2c(s1)S(=O)(=O)N(Cc1cccs1)C[C@@H]2O [1BNU],-13.8
12,NS(=O)(=O)c1ccc(S(=O)(=O)NCc2cccs2)s1 [1BNW],-12.9
13,CC1=C(/C=C/C(C)=C/C=C/C(C)=C/CO)C(C)(C)CCC1 [1BRP],-9.3
14,O=C(O)C[C@@H](Cc1ccccc1)C(=O)O [1CBX],-8.7
15,CCN[C@H]1C[C@H](C)S(=O)(=O)c2sc(S(N)(=O)=O)cc21 [1CIL],-12.9
16,C[C@H]1C[C@H](N)c2cc(S(N)(=O)=O)sc2S1(=O)=O [1CIM],-12
17,CN[C@H]1C[C@H](C)S(=O)(=O)c2sc(S(N)(=O)=O)cc21 [1CIN],-11.9

row,SMILES,"ΔG, kcal/mol (free energy of ligand-protein binding) [kcal/mol]"
1,C[C@]12CCC(=O)C[C@H]1CC[C@@H]1[C@@H]2CC[C@]2(C)C(=O)CC[C@@H]12 [1DBK],-11
2,Nc1nc(=O)c2nc(CNc3ccc(C(=O)N[C@@H](CCC(=O)O)C(=O)O)cc3)cnc2[nH]1 [1DHF],-10.1
3,N=C(N)c1ccccc1 [1DWB],-4
4,N[C@@H](Cc1c[nH]cn1)C(=O)O [1HSL],-9.8
5,C[C@H](NC(=O)[C@@H](CS)Cc1ccccc1)C(=O)NCC(N)=O [1JAO],-8.1
6,CNC(=O)[C@H](Cc1ccccc1)NC(=O)[C@@H](CC(=O)NO)CC(C)C [1MNC],-12.6
7,CC(=O)N[C@H]1[C@H]([C@H](O)[C@H](O)CO)OC(C(=O)O)=C[C@@H]1O [1NNB],-7.2
8,CC(=O)N[C@H]1[C@H]([C@@H](O)[C@@H](O)CO)O[C@@](O)(C(=O)O)C[C@@H]1O [1NSC],-4.1
9,NCCc1ccccc1 [1TNJ],-2.7
10,N[C@H]1C[C@@H]1c1ccccc1 [1TNL],-2.6
11,CC(=O)N[C@H]1[C@H]([C@H](O)[C@H](O)CO)O[C@@](O)(C(=O)O)C[C@@H]1O [2QWB],-3.7
12,CC(=O)N[C@H]1[C@H]([C@H](O)[C@H](O)CO)OC(C(=O)O)=C[C@@H]1O [2QWC],-4.8
13,CC(=O)N[C@H]1[C@H]([C@H](O)[C@H](O)CO)OC(C(=O)O)=C[C@@H]1N [2QWD],-6.6
14,CC(=O)N[C@H]1[C@H]([C@H](O)[C@H](O)CO)OC(C(=O)O)=C[C@@H]1N=C(N)N [2QWE],-10.2
15,CCN(CC)C(=O)[C@@H]1OC(C(=O)O)=C[C@H](N)[C@H]1NC(C)=O [2QWG],-11.5
16,CC(C)C[C@H](NP(=O)(O)O)C(N)=O [2TMN],-8
